Measured values published in patent US10913736B2 (UNIVERSITY OF WASHINGTON, priority 2014, dated 2021).

Tests used:
[1] = biological target: MetRS (T. brucei) (Trypanosoma brucei brucei, UniProt Q38C91); assay: MetRS (T. brucei) ATP depletion assay using Kinase-Glo; format: biochemical
[2] = system: T. brucei; assay: Growth inhibition assay of T. brucei cell cultures (Alamar Blue, 48 h); format: cell-based; details: Trypanosoma brucei; read-out: B) T. brucei EC50

MetRS (T. brucei), sequence (Q38C91 entry or part of it): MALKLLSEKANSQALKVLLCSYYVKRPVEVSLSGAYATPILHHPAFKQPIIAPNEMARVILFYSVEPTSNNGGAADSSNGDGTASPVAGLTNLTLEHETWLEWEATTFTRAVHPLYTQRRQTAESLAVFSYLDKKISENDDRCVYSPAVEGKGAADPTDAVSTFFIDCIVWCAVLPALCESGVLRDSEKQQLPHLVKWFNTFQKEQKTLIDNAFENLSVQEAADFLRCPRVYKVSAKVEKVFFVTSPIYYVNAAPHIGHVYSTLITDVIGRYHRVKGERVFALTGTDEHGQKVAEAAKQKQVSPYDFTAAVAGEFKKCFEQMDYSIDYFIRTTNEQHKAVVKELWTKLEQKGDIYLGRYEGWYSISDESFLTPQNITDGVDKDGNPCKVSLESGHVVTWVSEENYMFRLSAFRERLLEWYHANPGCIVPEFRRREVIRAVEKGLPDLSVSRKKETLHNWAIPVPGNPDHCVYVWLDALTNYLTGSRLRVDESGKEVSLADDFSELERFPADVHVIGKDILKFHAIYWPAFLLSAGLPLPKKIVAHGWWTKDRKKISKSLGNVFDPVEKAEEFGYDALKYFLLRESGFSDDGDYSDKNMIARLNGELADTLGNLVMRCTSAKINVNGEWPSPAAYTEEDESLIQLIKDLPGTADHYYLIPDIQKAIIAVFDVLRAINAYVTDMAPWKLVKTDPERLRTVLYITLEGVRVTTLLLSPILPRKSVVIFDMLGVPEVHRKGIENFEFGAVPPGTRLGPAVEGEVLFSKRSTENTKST

For `O=C1CN(Cc2cc(Cl)cc(Cl)c2)CCN1Cc1nc2ccccc2[nH]1` [Compound 1748, 1-((1H-benzo[d]imidazol-2-yl)methyl)-4-(3,5-dichlorobenzyl)piperazin-2-one], the IC50 [1] was > 10 µM and the EC50 [2] was > 10 µM.
`O=C(CCNCc1cc(Cl)cc(Cl)c1)Nc1nc2ncccc2[nH]1` [Compound 1576, 3-(3,5-dichlorobenzylamino)-N-(3H-imidazo[4,5-b]pyridin-2-yl)propanamide] showed an IC50 [1] of 0.109 µM and an EC50 [2] of 0.403 µM.
`O=C(Cc1cc(Cl)cc(Cl)c1)N1CCCC(c2nc3cc(F)ccc3[nH]2)C1` (centres unmarked) [Compound 1744, 2-(3,5-dichlorophenyl)-1-(3-(5-fluoro-1H-benzo[d]imidazol-2-yl)piperidin-1-yl)ethanone] showed an IC50 [1] of 0.184 µM and an EC50 [2] of 3.26 µM.
Molecule `Clc1cc(Cl)cc(CO[C@H]2CCCN(c3nc4nc(Cl)ccc4[nH]3)C2)c1` [Compound 1898] has an IC50 [1] of 0.196 µM and an EC50 [2] of 8.8 µM.
Work on `CC(Cc1nc2cc3ccccc3cc2[nH]1)NCc1cc(Cl)cc(Cl)c1` (centres unmarked) [Compound 1826, [(3,5-dichlorophenyl)methyl](1-{1H-naphtho[2,3-d]imidazol-2-yl}propan-2-yl)amine] yielded an IC50 [1] of 0.454 µM and an EC50 [2] of 7.94 µM.
In the case of `O=C1CN(Cc2cccc(Cl)c2)CCN1Cc1nc2ccccc2[nH]1` [Compound 1736, 1-((1H-benzo[d]imidazol-2-yl)methyl)-4-(3-chlorobenzyl)piperazin-2-one], the IC50 [1] is reported as > 10 µM and the EC50 [2] is reported as > 20 µM.
`O=C(Cc1ccc(Cl)cc1Cl)NCc1nc2ccc(Br)cc2[nH]1` [Compound 1874, N-[(6-bromo-1H-1,3-benzodiazol-2-yl)methyl]-2-(2,4-dichlorophenyl)acetamide] gave an IC50 [1] of 0.051 µM and an EC50 [2] of 3.65 µM.
Work on `CC(Cc1nc2ccccc2[nH]1)NCc1cc(Cl)cc(Cl)c1` (centres unmarked) [Compound 1819, [1-(1H-1,3-benzodiazol-2-yl)propan-2-yl][(3,5-dichlorophenyl)methyl]amine] yielded an IC50 [1] of 7.23 µM and an EC50 [2] of 8.9 µM.
`O=C(COc1ccc(Cl)cc1Cl)NCc1cc2ccccc2[nH]1` [Compound 1674, 2-(2,4-dichlorophenoxy)-N-(1H-indol-2-ylmethyl)acetamide] was tested, and the IC50 [1] was 23 µM and the EC50 [2] was > 20 µM.
`N[C@@H](COc1ccc(Cl)cc1Cl)C(=O)NCc1nc2ccccc2[nH]1` [Compound 1807, (S)—N-((1H-benzo[d]imidazol-2-yl)methyl)-3-(2,4-dichlorophenoxy)-2-aminopropanamide] was tested, and the IC50 [1] was 1.55 µM and the EC50 [2] was 3.73 µM.
`O=C(Cc1cc(Cl)cc(Cl)c1)N1CCCC(c2nc3cc(Cl)c(Cl)cc3[nH]2)C1` (centres unmarked) [Compound 1745, 1-(3-(5,6-dichloro-1H-benzo[d]imidazol-2-yl)piperidin-1-yl)-2-(3,5-dichlorophenyl)ethanone] was tested, and the IC50 [1] was 0.812 µM and the EC50 [2] was 4.6 µM.
With `O=C(CSc1nc2ccc(Cl)nc2[nH]1)NCc1cc(Cl)cc(Cl)c1` [Compound 1951, 2-({5-chloro-3H-imidazo[4,5-b]pyridin-2-yl}sulfanyl)-N-[(3,5-dichlorophenyl)methyl]acetamide] the IC50 [1] was 0.288 µM and the EC50 [2] was 0.664 µM.
Work on `OC1N[C@@H](Cc2ccc(Cl)cc2Cl)C(O)N1Cc1nc2ccccc2[nH]1` (stereo partly drawn) [Compound 1906, (5S)-3-((H-benzo[d]imidazol-2-yl)methyl)-5-(2,4-dichlorobenzyl)imidazolidine-2,4-diol] yielded an IC50 [1] of 2.94 µM and an EC50 [2] of 6.23 µM.
For `O=C(NCc1nc2ccccc2[nH]1)N[C@H](CO)Cc1ccc(Cl)cc1Cl` [Compound 1935, 1-((1H-benzo[d]imidazol-2-yl)methyl)-3-((S)-3-(2,4-dichlorophenyl)-1-hydroxypropan-2-yl)urea], the IC50 [1] was > 10 µM and the EC50 [2] was 9.36 µM.
In the case of `O=C1CN(Cc2ccccc2Cl)CCN1Cc1nc2ccccc2[nH]1` [Compound 1735, 1-(1H-1,3-benzodiazol-2-ylmethyl)-4-[(2-chlorophenyl)methyl]piperazin-2-one], the IC50 [1] is reported as > 10 µM and the EC50 [2] is reported as > 20 µM.
For `O=C1N[C@@H](Cc2ccc(Cl)cc2Cl)C(O)N1Cc1nc2ccccc2[nH]1` (stereo partly drawn) [Compound 1934, (4S)-1-((1H-benzo[d]imidazol-2-yl)methyl)-4-(2,4-dichlorobenzyl)-5-hydroxyimidazolidin-2-one], the IC50 [1] was 0.118 µM and the EC50 [2] was 2 µM.
For `Clc1cc(Cl)cc(CNC2CN(c3nc4nc(Cl)ccc4[nH]3)C2)c1` [Compound 1864, 1-{5-chloro-1H-imidazo[4,5-b]pyridin-2-yl}-N-[(3,5-dichlorophenyl)methyl]azetidin-3-amine], the IC50 [1] was 2.17 µM and the EC50 [2] was > 20 µM.
In the case of `O=C(COc1ccc(Cl)cc1Cl)NCc1nc2ccccc2[nH]1` [Compound 1671, N-(1H-1,3-benzodiazol-2-ylmethyl)-2-(2,4-dichlorophenoxy)acetamide], the IC50 [1] is reported as 1.27 µM and the EC50 [2] is reported as > 20 µM.
In the case of `Clc1ccc(CN[C@H]2CCN(c3nc4ccc(Cl)nc4[nH]3)C2)c(Cl)c1` [Compound 1846, (3S)-1-{5-chloro-3H-imidazo[4,5-b]pyridin-2-yl}-N-[(2,4-dichlorophenyl)methyl]pyrrolidin-3-amine], the IC50 [1] is reported as 1.64 µM and the EC50 [2] is reported as 11 µM.
For `O=C(Cc1cc(Cl)cc(Cl)c1)NCc1nc2ncc(Cl)cc2[nH]1` [Compound 1877, N-({6-chloro-1H-imidazo[4,5-b]pyridin-2-yl}methyl)-2-(3,5-dichlorophenyl)acetamide], the IC50 [1] was 0.191 µM and the EC50 [2] was 8.68 µM.
`O=C(Cc1cc(Cl)cc(Cl)c1)NCc1nc2ccc(Br)cc2[nH]1` [Compound 1873, N-[(6-bromo-1H-1,3-benzodiazol-2-yl)methyl]-2-(3,5-dichlorophenyl)acetamide] was tested, and the IC50 [1] was 0.098 µM and the EC50 [2] was 5.5 µM.
Work on `COc1ccc(Oc2cccc(NCCc3nc4ccccc4[nH]3)n2)c(Cl)c1` [Compound 1918, N-[2-(1H-1,3-benzodiazol-2-yl)ethyl]-6-(2-chloro-4-methoxyphenoxy)pyridin-2-amine] yielded an IC50 [1] of 1.11 µM and an EC50 [2] of 9.56 µM.
`Fc1ccc2[nH]c(CCCNCc3cc(Cl)cc(Cl)c3)nc2n1` [Compound 1858, N-(3,5-dichlorobenzyl)-3-(5-fluoro-1H-imidazo[4,5-b]pyridin-2-yl)propan-1-amine] was tested, and the IC50 [1] was 0.34 µM and the EC50 [2] was 1.89 µM.
For `CC(=O)N1CCC(N(C(C)=O)[C@H]2CCCN(c3nc4nc(Cl)ccc4[nH]3)C2)c2cc(Cl)cc(Cl)c21` (some centres unmarked) [Compound 1945], the IC50 [1] was > 10 µM and the EC50 [2] was 13.7 µM.
With `CC(=O)N(Cc1cc(Cl)cc(Cl)c1)[C@@H]1CCC[C@H](c2nc3nc(Cl)ccc3[nH]2)C1` [Compound 1859, N-((1R,3S)-3-(5-chloro-1H-imidazo[4,5-b]pyridin-2-yl)cyclohexyl)-N-(3,5-dichlorobenzyl)acetamide] the IC50 [1] was 1.43 µM and the EC50 [2] was > 20 µM.
`O=C(/C=C/Oc1ccc(Cl)cc1Cl)NNc1nc2ccccc2[nH]1` [Compound 1765, (2E)-N′-(1H-1,3-benzodiazol-2-yl)-3-(2,4-dichlorophcnoxy)prop-2-enehydrazide] was tested, and the IC50 [1] was > 10 µM and the EC50 [2] was > 20 µM.
For `O=C1CN(C(=O)c2ccc3ccccc3c2)CCN1Cc1nc2ccccc2[nH]1` [Compound 1760, 1-((1H-benzo[d]imidazol-2-yl)methyl)-4-(2-naphthoyl)piperazin-2-one], the IC50 [1] was > 10 µM and the EC50 [2] was > 10 µM.
With `O=C(Cc1ccc(Cl)cc1Cl)NCc1nc2ccc(Cl)cc2[nH]1` [Compound 1852, N-[(6-chloro-1H-1,3-benzodiazol-2-yl)methyl]-2-(2,4-dichlorophenyl)acetamide] the IC50 [1] was 0.075 µM and the EC50 [2] was 5.54 µM.
